From US20230114728A1 (Venatorx Pharmaceuticals, Inc., priority 2019, published 2023)
Values after ≈ are worked out from the molar mass of the structure shown.

How the values were obtained:
[1] = tested on: E. coli ATCC 25922; experiment: Broth microdilution MIC in CAMHB; assay type: cell-based; settings: Escherichia coli, ATCC25922; E. coli ATCC 25922; MHB; read-out: Minimum Inhibitory Concentration, E. coli 25922
Procedure, shortened: (§1)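 Hyper-permeable or efflux-deficient strains serve to probe outer-membrane penetration. Growth inhibition is scored visually after 16-20 h at 37° C in CAMHB, starting from 2-8×10^5 CFU/mL.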

[2] = tested on: P. aeruginosa ATCC 27853; experiment: Broth microdilution MIC in CAMHB; assay type: cell-based; settings: Pseudomonas aeruginosa, ATCC27853; MHB; read-out: Minimum Inhibitory Concentration, P. aeruginosa ATCC 27853
Procedure, shortened: as §1

[3] = tested on: P. aeruginosa (ΔmexAB-oprM); experiment: Broth microdilution MIC in CAMHB; assay type: cell-based; settings: Pseudomonas aeruginosa, read-out: Minimum Inhibitory Concentration, P. aeruginosa ΔmexAB-OprM
Procedure, shortened: as §1

[4] = tested on: K. pneumoniae 848844 producing SHV-11 and KPC-2; experiment: Broth microdilution MIC in CAMHB; assay type: cell-based; settings: Klebsiella pneumoniae, read-out: Minimum Inhibitory Concentration, K. pneumoniae 848844
Procedure, shortened: as §1

[5] = tested on: E. coli AG100A; experiment: Broth microdilution MIC in CAMHB; assay type: cell-based; settings: Escherichia coli, read-out: Minimum Inhibitory Concentration, E. coli AG100A
Procedure, shortened: as §1

[6] = tested on: P. aeruginosa ATCC 35151; experiment: Broth microdilution MIC in CAMHB; assay type: cell-based; settings: Pseudomonas aeruginosa, ATCC35151; MHB; hyper-permeable strain; read-out: Minimum Inhibitory Concentration, P. aeruginosa ATCC 35151
Procedure, shortened: as §1

[7] = tested on: K. pneumoniae UMM producing SHV-5 and KPC-2; experiment: Broth microdilution MIC in CAMHB; assay type: cell-based; settings: Klebsiella pneumoniae, read-out: Minimum Inhibitory Concentration, K. pneumoniae UMM
Procedure, shortened: as §1

[8] = molecular target: T1, P. aeruginosa PBP3 (Pseudomonas aeruginosa, UniProt G3XD46); experiment: Bocillin-FL fluorescence polarization competition binding assay, P. aeruginosa PBP3; settings: fluorescence polarization competition binding assay using Bocillin-FL
T1 construct: made in house
T1 sequence (G3XD46 whole entry): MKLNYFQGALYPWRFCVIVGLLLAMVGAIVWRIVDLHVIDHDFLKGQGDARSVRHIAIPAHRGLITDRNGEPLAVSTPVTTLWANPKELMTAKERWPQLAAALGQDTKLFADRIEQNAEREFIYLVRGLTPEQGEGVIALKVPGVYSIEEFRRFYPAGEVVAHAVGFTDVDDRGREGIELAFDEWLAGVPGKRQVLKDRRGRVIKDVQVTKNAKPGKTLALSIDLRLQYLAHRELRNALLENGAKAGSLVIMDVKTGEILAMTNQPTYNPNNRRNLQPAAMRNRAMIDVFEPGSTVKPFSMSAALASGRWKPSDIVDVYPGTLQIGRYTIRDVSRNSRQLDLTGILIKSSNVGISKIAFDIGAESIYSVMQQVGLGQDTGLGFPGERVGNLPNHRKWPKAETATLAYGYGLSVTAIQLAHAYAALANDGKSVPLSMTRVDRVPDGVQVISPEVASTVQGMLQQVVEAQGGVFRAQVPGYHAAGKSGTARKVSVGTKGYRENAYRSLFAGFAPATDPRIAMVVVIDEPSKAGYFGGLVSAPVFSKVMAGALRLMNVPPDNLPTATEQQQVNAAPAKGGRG
Procedure, shortened: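 Inhibitor competition with Bocillin-FL for P. aeruginosa PBP3 was followed by fluorescence polarization on a Cytation3 (BioTek) reader, using g-factor 0.96, 490 nm excitation and 520 nm emission. The enzyme was at 0.75 μM and the probe at 0.1 μM in Hepes/NaCl/glycerol buffer, 80 μl per well. FP was recorded immediately after probe addition for up to 60 minutes. Potency was expressed as EC50, the concentration that reduces bound probe by 50%.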

Compound	MIC [1] [µg/mL]	MIC [2] [µg/mL]	MIC [3] [µg/mL]	MIC [4] [µg/mL]	MIC [5] [µg/mL]	MIC [6] [µg/mL]	MIC [7] [µg/mL]	P. aeruginosa PBP3 Potency [8]
CCN1CCN(C(=O)N[C@H](C(=O)N[C@H]2Cc3ccc(F)c(C(=O)O)c3OB2O)c2c(F)cc(O)c(O)c2Cl)C(=O)C1=O (single isomer, unassigned) [Example 125]	32 to 64 (≈ 52.4 to 105 µM)	> 128	32 to 64 (≈ 52.4 to 105 µM)	32 to 64 (≈ 52.4 to 105 µM)	2 to 4 (≈ 3.27 to 6.55 µM)	2 to 4 (≈ 3.27 to 6.55 µM)	32 to 64 (≈ 52.4 to 105 µM)	A (A represents a potency of >500 μM)
NCCN1CCN(C(=O)N[C@@H](C(=O)N[C@H]2Cc3ccc(F)c(C(=O)O)c3OB2O)c2c(F)cc(O)cc2F)C(=O)C1=O (single isomer, unassigned) [Example 127]	8 to 16 (≈ 13.5 to 27 µM)	> 128	8 to 16 (≈ 13.5 to 27 µM)	32 to 64 (≈ 53.9 to 108 µM)	8 to 16 (≈ 13.5 to 27 µM)	0.5 to 1 (≈ 0.843 to 1.69 µM)	8 to 16 (≈ 13.5 to 27 µM)	D (D represents a potency <10 μM)
NCCN1CCN(C(=O)N[C@H](C(=O)N[C@H]2Cc3ccc(F)c(C(=O)O)c3OB2O)c2c(F)cc(O)cc2F)C(=O)C1=O (single isomer, unassigned) [Example 128]	32 to 64 (≈ 53.9 to 108 µM)	> 128	32 to 64 (≈ 53.9 to 108 µM)	> 128	32 to 64 (≈ 53.9 to 108 µM)	2 to 4 (≈ 3.37 to 6.74 µM)	32 to 64 (≈ 53.9 to 108 µM)	C (C represents a potency between 10 and 30 μM)
CS(=O)(=O)N1CCN(C(=O)N[C@@H](C(=O)N[C@H]2Cc3cccc(C(=O)O)c3OB2O)c2c(F)cc(O)cc2F)C1=O (single isomer, unassigned) [Example 135]	8 to 16 (≈ 13.7 to 27.5 µM)	> 128	32 to 64 (≈ 55 to 110 µM)	32 to 64 (≈ 55 to 110 µM)	0.5 to 1 (≈ 0.859 to 1.72 µM)	2 to 4 (≈ 3.43 to 6.87 µM)	32 to 64 (≈ 55 to 110 µM)	D (D represents a potency <10 μM)
CS(=O)(=O)N1CCN(C(=O)N[C@H](C(=O)N[C@H]2Cc3cccc(C(=O)O)c3OB2O)c2c(F)cc(O)cc2F)C1=O (single isomer, unassigned) [Example 136]	> 128	> 128	> 128	> 128	8 to 16 (≈ 13.7 to 27.5 µM)	2 to 4 (≈ 3.43 to 6.87 µM)	> 128	B (B represents a potency between 30 μM and 500 μM inclusive)
CCN1CCN(C(=O)N[C@H](C(=O)N[C@H]2Cc3cccc(C(=O)O)c3OB2O)c2ccc(C(=O)O)c(F)c2F)C(=O)C1=O (single isomer, unassigned) [Example 139]	> 128	> 128	8 to 16 (≈ 13.6 to 27.2 µM)	> 128	8 to 16 (≈ 13.6 to 27.2 µM)	0.5 to 1 (≈ 0.85 to 1.7 µM)	32 to 64 (≈ 54.4 to 109 µM)	D (D represents a potency <10 μM)
CCN1CCN(C(=O)N[C@@H](C(=O)N[C@H]2Cc3cccc(C(=O)O)c3OB2O)c2ccc(C(=O)O)c(F)c2F)C(=O)C1=O (single isomer, unassigned) [Example 140]	32 to 64 (≈ 54.4 to 109 µM)	> 128	8 to 16 (≈ 13.6 to 27.2 µM)	> 128	2 to 4 (≈ 3.4 to 6.8 µM)	< 0.25	32 to 64 (≈ 54.4 to 109 µM)	D (D represents a potency <10 μM)
CCN1CCN(C(=O)N[C@H](C(=O)N[C@H]2Cc3cccc(C(=O)O)c3OB2O)c2ccc(C(=O)O)cc2O)C(=O)C1=O (single isomer, unassigned) [Example 143]	> 128	> 128	> 128	> 128	32 to 64 (≈ 56.3 to 113 µM)	2 to 4 (≈ 3.52 to 7.04 µM)	> 128	B (B represents a potency between 30 μM and 500 μM inclusive)
CCN1CCN(C(=O)N[C@@H](C(=O)N[C@H]2Cc3cccc(C(=O)O)c3OB2O)c2ccc(C(=O)O)cc2O)C(=O)C1=O (single isomer, unassigned) [Example 144]	32 to 64 (≈ 56.3 to 113 µM)	> 128	8 to 16 (≈ 14.1 to 28.2 µM)	> 128	8 to 16 (≈ 14.1 to 28.2 µM)	0.5 to 1 (≈ 0.88 to 1.76 µM)	32 to 64 (≈ 56.3 to 113 µM)	D (D represents a potency <10 μM)
CCN1CCN(C(=O)N[C@@H](C(=O)N[C@H]2Cc3cccc(C(=O)O)c3OB2O)c2ccc(C(=O)O)c(F)c2)C(=O)C1=O (single isomer, unassigned) [Example 146]	32 to 64 (≈ 56.1 to 112 µM)	32 to 64 (≈ 56.1 to 112 µM)	8 to 16 (≈ 14 to 28.1 µM)	> 128	2 to 4 (≈ 3.51 to 7.01 µM)	< 0.25	32 to 64 (≈ 56.1 to 112 µM)	D (D represents a potency <10 μM)
